Source: US20220289708A1, “SUBSTITUTED N-PHENYL URACILS, SALTS THEREOF AND THEIR USE AS HERBICIDAL AGENTS” (Bayer Aktiengesellschaft, priority 2019, published 2022)

What was measured:
Format in all cases: in vivo
Polygonum convolvulus [1] = test: Post-emergence herbicidal action; conditions: application rate 5 g/ha
Outline: (§1)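 Greenhouse-grown plants in sandy loam treated at one-leaf stage, 2–3 weeks after sowing, with WP or EC formulations sprayed as aqueous suspension/emulsion plus 0.5% additive at 600 l/ha water; rates 20 g/ha and less. Visual rating after about 3 weeks versus untreated controls (100% = plants dead, 0% = like control).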

Digitaria sanguinalis [2] = test: Post-emergence herbicidal action; conditions: rated visually after about 3 weeks vs untreated controls
Outline: as §1

Echinochloa crus-galli [3] = test: Post-emergence herbicidal action; conditions: rated visually after about 3 weeks vs untreated controls
Outline: as §1

Stellaria media = test: Post-emergence herbicidal action; conditions: application rate 5 g/ha, rated visually after about 3 weeks vs untreated controls
Outline: as §1

Viola tricolor [4] = test: Post-emergence herbicidal action; conditions: application rate 5 g/ha
Outline: as §1

Veronica persica [5] = test: Post-emergence herbicidal action
Outline: as §1

Amaranthus retroflexus [6] = test: Post-emergence herbicidal action; conditions: application rate 5 g/ha, rated visually after about 3 weeks vs untreated controls
Outline: as §1

Alopecurus myosuroides [7] = test: Post-emergence herbicidal action; conditions: rated visually after about 3 weeks vs untreated controls
Outline: as §1

Abutilon theophrasti [8] = test: Post-emergence herbicidal action; conditions: application rate 5 g/ha, rated visually after about 3 weeks vs untreated controls
Outline: as §1

Lolium rigidum [9] = test: Post-emergence herbicidal action; conditions: application rate 20 g/ha, rated visually after about 3 weeks vs untreated controls
Outline: as §1

Matricaria inodora [10] = test: Post-emergence herbicidal action; conditions: rated visually after about 3 weeks vs untreated controls
Outline: as §1

Setaria viridis [11] = test: Post-emergence herbicidal action; conditions: rated visually after about 3 weeks vs untreated controls
Outline: as §1

Hordeum murinum = test: Post-emergence herbicidal action; conditions: application rate 20 g/ha
Outline: as §1

Pharbitis purpurea [12] = test: Post-emergence herbicidal action; conditions: application rate 5 g/ha, rated visually after about 3 weeks vs untreated controls
Outline: as §1

Oryza sativa = test: Post-emergence crop plant compatibility; conditions: application rate 5 g/ha
Outline: (§2)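 Greenhouse crop plants in sandy loam sprayed at one-leaf stage (2-3 weeks after sowing) with WP or EC formulations plus 0.5% additive, 600 l/ha water, at 5 g/ha or 20 g/ha. Damage scored visually after about 3 weeks as % versus untreated controls (100% = plants dead).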

Triticum aestivum = test: Post-emergence crop plant compatibility
Outline: as §2

Polygonum convolvulus [13] = test: Pre-emergence herbicidal action; conditions: application rate 20 g/ha
From the text: (§3) B. Pre-Emergence Herbicidal Action and Crop Plant Compatibility Seeds of monocotyledonous and dicotyledonous weed plants and crop plants were placed in plastic or organic planting pots and covered with soil. The compounds of the invention, formulated in the form of wettable powders (WP) or as emulsion concentrates (EC), were then applied to the surface of the covering soil as aqueous suspension or emulsion with addition of 0.5% additive at a water application rate equivalent to 600 l/ha (converted). After the treatment, the pots were placed in a greenhouse and kept under good growth conditions for the test plants. After about 3 weeks, the effect of the preparations was scored visually in comparison with untreated controls as percentages. For example, 100% activity=the plants have died, 0% activity=like control plants. Tables B1 to B13 below show the effects of selected compounds of the general formula (I) according to Tables I.1 to I.36 on various harmful plants and at an application rate corresponding to 80 g/ha or less, which were obtained by the experimental procedure mentioned above.

Avena fatua [14] = test: Pre-emergence herbicidal action; conditions: application rate 80 g/ha
From the text: as §3

Digitaria sanguinalis [15] = test: Pre-emergence herbicidal action; conditions: application rate 20 g/ha
From the text: as §3

Echinochloa crus-galli [16] = test: Pre-emergence herbicidal action; conditions: application rate 20 g/ha
From the text: as §3

Viola tricolor [17] = test: Pre-emergence herbicidal action; conditions: application rate 20 g/ha
From the text: as §3

Veronica persica [18] = test: Pre-emergence herbicidal action; conditions: application rate 20 g/ha
From the text: as §3

Amaranthus retroflexus [19] = test: Pre-emergence herbicidal action; conditions: application rate 20 g/ha
From the text: as §3

Alopecurus myosuroides [20] = test: Pre-emergence herbicidal action; conditions: application rate 80 g/ha
From the text: as §3

Abutilon theophrasti [21] = test: Pre-emergence herbicidal action; conditions: application rate 20 g/ha
From the text: as §3

Lolium rigidum [22] = test: Pre-emergence herbicidal action; conditions: application rate 80 g/ha
From the text: as §3

Matricaria inodora [23] = test: Pre-emergence herbicidal action; conditions: application rate 20 g/ha
From the text: as §3

Setaria viridis [24] = test: Pre-emergence herbicidal action; conditions: application rate 20 g/ha
From the text: as §3

Pharbitis purpurea [25] = test: Pre-emergence herbicidal action; conditions: application rate 20 g/ha
From the text: as §3

Avena fatua [26] = test: Post-emergence herbicidal action; conditions: application rate 20 g/ha, rated visually after about 3 weeks vs untreated controls
Outline: as §1

Zea mays = test: Pre-emergence crop plant compatibility; conditions: application rate 20 g/ha
From the text: B. Pre-Emergence Herbicidal Action and Crop Plant Compatibility
as §3, with “Seeds” for “B. Pre-Emergence Herbicidal Action and Crop Plant Compatibility Seeds”, “plants.” for “plants. Tables B1 to B13 below show the effects of selected compounds of the general formula (I) according to Tables I.1 to I.36 on various harmful plants and at an application rate corresponding to 80 g/ha or less, which were obtained by the experimental procedure mentioned above.”
Tables B14 to B16 below show the crop plant compatibilities of selected compounds of the general formula (I) according to Tables I.1 to I.36 at an application rate corresponding to 20 g/ha, which were obtained in experiments according to the experimental procedure mentioned above. Here, the observed effects on selected crop plants are stated in comparison to the untreated controls (values in %).

| SMILES | Echinochloa crus-galli (efficacy in %) (Echinochloa crus-galli [3]; application rate 5 g/ha) [%] | Amaranthus retroflexus (efficacy in %) (Amaranthus retroflexus [6]) [%] | Abutilon theophrasti (efficacy in %) (Abutilon theophrasti [8]) [%] | Pharbitis purpurea (efficacy in %) (Pharbitis purpurea [12]) [%] | Oryza sativa (efficacy in %) (Oryza sativa) [%] | Veronica persica (efficacy in %) (Veronica persica [5]; application rate 5 g/ha) [%] | Matricaria inodora (efficacy in %) (Matricaria inodora [10]; application rate 5 g/ha) [%] | Polygonum convolvulus (efficacy in %) (Polygonum convolvulus [13]) [%] | Avena fatua (efficacy in %) (Avena fatua [14]) [%] | Digitaria sanguinalis (efficacy in %) (Digitaria sanguinalis [15]) [%] | Echinochloa crus-galli (efficacy in %) (Echinochloa crus-galli [16]) [%] | Viola tricolor (efficacy in %) (Viola tricolor [17]) [%] | Veronica persica (efficacy in %) (Veronica persica [18]) [%] | Amaranthus retroflexus (efficacy in %) (Amaranthus retroflexus [19]) [%] | Alopecurus myosuroides (efficacy in %) (Alopecurus myosuroides [20]) [%] | Abutilon theophrasti (efficacy in %) (Abutilon theophrasti [21]) [%] | Lolium rigidum (efficacy in %) (Lolium rigidum [22]) [%] | Matricaria inodora (efficacy in %) (Matricaria inodora [23]) [%] | Setaria viridis (efficacy in %) (Setaria viridis [24]) [%] | Pharbitis purpurea (efficacy in %) (Pharbitis purpurea [25]) [%] | also measured |
| --- | --- | --- | --- | --- | --- | --- | --- | --- | --- | --- | --- | --- | --- | --- | --- | --- | --- | --- | --- | --- | --- |
| Cn1c(C(F)(F)F)cc(=O)n(-c2cc(Sc3cccnc3SCC(=O)OCC3CCOC3)c(Cl)cc2F)c1=O (stereo not drawn) [I.10-72] | 100 | 100 | 100 | 100 | 20 | – | – | – | – | – | – | – | – | – | – | – | – | – | – | – | Polygonum convolvulus (efficacy in %) (Polygonum convolvulus [1]): 100%; Digitaria sanguinalis (efficacy in %) (Digitaria sanguinalis [2]; application rate 5 g/ha): 80%; Stellaria media (efficacy in %) (Stellaria media): 90%; Viola tricolor (efficacy in %) (Viola tricolor [4]): 100%; Veronica persica (efficacy in %) (Veronica persica [5]; application rate 20 g/ha): 80%; Alopecurus myosuroides (efficacy in %) (Alopecurus myosuroides [7]; application rate 20 g/ha): 80%; Lolium rigidum (efficacy in %) (Lolium rigidum [9]): 80%; Matricaria inodora (efficacy in %) (Matricaria inodora [10]; application rate 20 g/ha): 100%; Setaria viridis (efficacy in %) (Setaria viridis [11]; application rate 5 g/ha): 90%; Hordeum murinum (efficacy in %) (Hordeum murinum): 80%; Triticum aestivum (efficacy in %) (Triticum aestivum; application rate 20 g/ha): 20% |
| CSCCOC(=O)COc1ncccc1Oc1cc(-n2c(=O)cc(C(F)(F)F)n(C)c2=O)c(F)cc1Cl [I.15-31] | – | 100 | 100 | 100 | 20 | 100 | 100 | 100 | 100 | 100 | 100 | 100 | 100 | 100 | 100 | 100 | 100 | 100 | 100 | 100 | Digitaria sanguinalis (efficacy in %) (Digitaria sanguinalis [2]; application rate 5 g/ha): 100% |
| Cn1c(C(F)(F)F)cc(=O)n(-c2cc(Oc3cccnc3OCC(=O)OC3COC3)c(Cl)cc2F)c1=O [I.15-115] | – | 100 | 100 | 100 | – | 100 | 100 | – | – | – | – | – | – | – | – | – | – | – | – | – | Polygonum convolvulus (efficacy in %) (Polygonum convolvulus [1]): 100%; Avena fatua (efficacy in %) (Avena fatua [26]): 90%; Digitaria sanguinalis (efficacy in %) (Digitaria sanguinalis [2]; application rate 20 g/ha): 100%; Echinochloa crus-galli (efficacy in %) (Echinochloa crus-galli [3]; application rate 20 g/ha): 100%; Stellaria media (efficacy in %) (Stellaria media): 100%; Viola tricolor (efficacy in %) (Viola tricolor [4]): 100%; Alopecurus myosuroides (efficacy in %) (Alopecurus myosuroides [7]; application rate 5 g/ha): 80%; Lolium rigidum (efficacy in %) (Lolium rigidum [9]): 90%; Setaria viridis (efficacy in %) (Setaria viridis [11]; application rate 20 g/ha): 100%; Hordeum murinum (efficacy in %) (Hordeum murinum): 100%; Triticum aestivum (efficacy in %) (Triticum aestivum; application rate 5 g/ha): 20% |
| Cn1c(C(F)(F)F)cc(=O)n(-c2cc(Oc3cccnc3OCC(=O)OCc3ccccn3)c(Cl)cc2F)c1=O [I.15-286] | 100 | 100 | 100 | 100 | 20 | 100 | 90 | 100 | 100 | 100 | 80 | 100 | 100 | 100 | 100 | 100 | 100 | 100 | 100 | 100 | Digitaria sanguinalis (efficacy in %) (Digitaria sanguinalis [2]; application rate 5 g/ha): 100%; Zea mays (efficacy in %) (Zea mays): 20% |
| Cn1c(C(F)(F)F)cc(=O)n(-c2cc(Oc3cccnc3OCC(=O)OCc3ccncc3)c(Cl)cc2F)c1=O [I.15-288] | 100 | 100 | 100 | 100 | 0 | 100 | 90 | 100 | 100 | 100 | 80 | 100 | 100 | 100 | 100 | 100 | 100 | 100 | 100 | 100 | – |
| Cn1c(C(F)(F)F)cc(=O)n(-c2cc(Oc3cccnc3OCC(=O)OCc3cccnn3)c(Cl)cc2F)c1=O [I.15-301] | 100 | 100 | 100 | 100 | 20 | 100 | – | 100 | 100 | 100 | 80 | 100 | 80 | 100 | 100 | 100 | 100 | 100 | 100 | 100 | Zea mays (efficacy in %) (Zea mays): 0% |
